Results from ChEMBL document CHEMBL1201862, “PubChem BioAssay data set” (2004).
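Dose response: 5 concentrations. Exposure: 48 h. Format: 96-well plates. Endpoint: linear interpolation; highest concentration if not reached. The concentration for 50% growth inhibition is given as GI50.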 Active and inactive are the calls of the source. Rule as the data show it: active = GI50 up to about 1.1 µM and inactive = higher.

Experiments:
Assay in all cases: growth of human tumour cells (NCI), 48 h
CAKI-1 = test system: CAKI-1
COLO 205 = test system: COLO 205
HCT-15 = test system: HCT-15
HL-60 = test system: HL-60
HT-29 = test system: HT-29
M14 = test system: M14
MOLT-4 = test system: MOLT-4
Malme-3M = test system: Malme-3M
OVCAR-3 = test system: OVCAR-3
OVCAR-5 = test system: OVCAR-5
SF-268 = test system: SF-268
SF-539 = test system: SF-539
SK-OV-3 = test system: SK-OV-3
SNB-75 = test system: SNB-75
SW-620 = test system: SW-620
UO-31 = test system: UO-31

Row | Structure (SMILES) | GI50 (CAKI-1) | GI50 (COLO 205) | GI50 (HCT-15) [µM] | GI50 (HL-60) | GI50 (HT-29) | GI50 (M14) | GI50 (MOLT-4) | GI50 (Malme-3M) | GI50 (OVCAR-3) | GI50 (OVCAR-5) | GI50 (SF-268) | GI50 (SF-539) | GI50 (SK-OV-3) | GI50 (SNB-75) | GI50 (SW-620) | GI50 (UO-31)
1 | CCOC(=O)NC(=O)c1cn(CC(=O)NCC(=O)NCC(=O)NCCCN2CCN(CCCNC(=O)CNC(=O)CNC(=O)Cn3cc(C(=O)NC(=O)OCC)c(=O)[nH]c3=O)CC2)c(=O)[nH]c1=O | > 100 µM (inactive) | > 100 µM (inactive) | > 100 | > 100 µM (inactive) | > 100 µM (inactive) | > 100 µM (inactive) | > 100 µM (inactive) | > 100 µM (inactive) | > 100 µM (inactive) | > 100 µM (inactive) | > 100 µM (inactive) | > 100 µM (inactive) | > 100 µM (inactive) | > 100 µM (inactive) | > 100 µM (inactive) | > 100 µM (inactive)
2 | COc1ccc(C(=C[N+](=O)[O-])c2ccc(OC)cc2)cc1 | 11.6 µM (inactive) | 9.79 µM (inactive) | 8.05 | 5.19 µM (inactive) | 4.52 µM (inactive) | 11.9 µM (inactive) | 3.17 µM (inactive) | 13.3 µM (inactive) | 14.1 µM (inactive) | 38.8 µM (inactive) | 20 µM (inactive) | 10.9 µM (inactive) | 14.3 µM (inactive) | 1.87 µM (inactive) | 4.02 µM (inactive) | 17.7 µM (inactive)
3 | O=C(Nc1ccc(Sc2ccc(/N=N/c3c(O)c(S(=O)(=O)O)cc4cc(S(=O)(=O)O)ccc34)cc2)cc1)c1ccc(/N=N/c2c(O)ccc3c(S(=O)(=O)O)cc(S(=O)(=O)O)cc23)cc1 | 43.8 µM (inactive) | 15.8 µM (inactive) | 27.5 | 10.3 µM (inactive) | 42.1 µM (inactive) | 21.7 µM (inactive) | 12.8 µM (inactive) | 24.9 µM (inactive) | 19.8 µM (inactive) | 33.4 µM (inactive) | 41 µM (inactive) | 46.9 µM (inactive) | > 100 µM (inactive) | > 100 µM (inactive) | 38.5 µM (inactive) | 41.2 µM (inactive)
4 | CCOC(=O)C1=C(Nc2ccccc2)SC/C1=N\NC(=O)Cc1ccccc1 | > 100 µM (inactive) | > 100 µM (inactive) | > 100 | > 100 µM (inactive) | > 100 µM (inactive) | > 100 µM (inactive) | > 100 µM (inactive) | > 100 µM (inactive) | > 100 µM (inactive) | > 100 µM (inactive) | > 100 µM (inactive) | > 100 µM (inactive) | > 100 µM (inactive) | > 100 µM (inactive) | > 100 µM (inactive) | > 100 µM (inactive)
5 | Cc1cc2occ(C)c(=O)c2c2c1OC(C)(C)S2 | – | > 100 µM (inactive) | > 100 | 38.1 µM (inactive) | 97.9 µM (inactive) | > 100 µM (inactive) | 37.3 µM (inactive) | > 100 µM (inactive) | > 100 µM (inactive) | > 100 µM (inactive) | > 100 µM (inactive) | > 100 µM (inactive) | > 100 µM (inactive) | 88.5 µM (inactive) | > 100 µM (inactive) | > 100 µM (inactive)
6 | O=C1CCC2(O)c3ccccc3C2Cc2ccccc21 (stereo not drawn) | – | > 100 µM (inactive) | – | > 100 µM (inactive) | > 100 µM (inactive) | – | > 100 µM (inactive) | > 100 µM (inactive) | > 100 µM (inactive) | – | > 100 µM (inactive) | > 100 µM (inactive) | – | 63.8 µM (inactive) | > 100 µM (inactive) | –
7 | O=C(NC12CC3CC(CC(C3)C1)C2)C(=O)c1c[nH]c2ccccc12 | – | 18.7 µM (inactive) | 12.1 | 15.5 µM (inactive) | 2.83 µM (inactive) | 14 µM (inactive) | 12.2 µM (inactive) | 15 µM (inactive) | 17 µM (inactive) | 17.9 µM (inactive) | 16.6 µM (inactive) | 13.6 µM (inactive) | 16 µM (inactive) | > 10 µM (inactive) | – | 20 µM (inactive)
8 | CCOC(=O)CC(NC(=O)c1nc[nH]c1[N+](=O)[O-])C(=O)OCC (stereo not drawn) | 47 µM (inactive) | 49.2 µM (inactive) | 78.5 | > 10 µM (inactive) | 40.4 µM (inactive) | 67.8 µM (inactive) | 43.1 µM (inactive) | > 100 µM (inactive) | 38.6 µM (inactive) | – | 40.6 µM (inactive) | 59.6 µM (inactive) | > 100 µM (inactive) | > 100 µM (inactive) | 37.2 µM (inactive) | 77.6 µM (inactive)
9 | CCOC(=O)C1Cc2ccc3c4c(ccc(c24)C1)CC(C(=O)OCC)C3 | – | > 100 µM (inactive) | > 100 | > 100 µM (inactive) | > 100 µM (inactive) | > 100 µM (inactive) | > 100 µM (inactive) | > 100 µM (inactive) | > 100 µM (inactive) | > 100 µM (inactive) | > 100 µM (inactive) | > 100 µM (inactive) | > 100 µM (inactive) | > 100 µM (inactive) | > 100 µM (inactive) | > 100 µM (inactive)
